Entries after “also recorded” stand apart in the source; their conditions may differ. Where two headings read alike, the source gives them in different places.
Assays:
[1] = test system: NO release by human primary monocytes; assay: Tat-induced nitric oxide release by primary monocytes (Griess reaction); assay type: cell-based; settings: co-treatment with Tat, 8 h; R-PIA 1 μM
Protocol: Human primary monocytes were treated with Tat in the presence or absence of the indicated adenosine receptor agonists for 8 h, and nitric oxide levels in the culture medium of the cells were then quantitated using the Griess reaction (Active Motif). Data represent mean+SEM of three experiments.
(§1) The effect of adenosine receptor activation on Tat-induced upregulation of iNOS expression and NO release was then determined. […] In contrast, incubation of cells with 1 μM R-PIA (an adenosine A1 receptor agonist) had no effect on Tat-induced iNOS expression or NO release (FIG. 11), implicating the A2A and A3 receptor subtypes in this anti-inflammatory effect. ZM241385 (an A2AR antagonist) or MRS 1220 (an A3R antagonist) could prevent the anti-inflammatory effects of CGS21680 or IB-MECA, respectively.

[2] = test system: iNOS expression in human primary monocytes; assay: Tat-induced iNOS expression in primary monocytes; assay type: cell-based; settings: for prevention of the anti-inflammatory effects of CGS21680 or IB-MECA, respectively: Tat-treated monocytes, iNOS/NO
Protocol: as §1

[3] = test system: mitochondrial membrane potential of rat cortical neurons; assay type: cell-based
Protocol: Curve fits are non-formulaic software interpolations of the data points.
Changes in mitochondrial function that could be associated with the increased vesicular activity were evaluated. Mitochondria generate the energy for synaptic transmission in the form of ATP, and as a byproduct of this oxidative phosphorylation, they are also one of the primary producers of intracellular ROS. Two key mitochondrial parameters were examined in response to Tat and PAF: 1) mitochondrial membrane potential (ΔΨm) [as assessed by mitochondrial uptake of the lipophilic cationic dyes tetramethylrhodamine ethyl or methyl ester (TMRE or TMRM respectively)], and 2) ATP production (as measured by luciferase assay). The electronegative mitochondrial membrane potential provides the driving force for calcium buffering and ATP production by the mitochondria, and as such, ΔΨm is frequently used as an indicator of mitochondrial health and energetic capacity. Moreover, fluctuations in ΔΨm can trigger mitochondrial release of pro-apoptotic factors, an event most frequently associated with a loss of ΔΨm.
Monitoring alterations in ΔΨm with TMRM: In the relevant methods described herein, changes in mitochondrial membrane potential (ΔΨm) in response to Tat or PAF treatment is assessed by TMRM, which must equilibrate across the plasma membrane before entering the mitochondria; and in whole cell applications dye concentration in the mitochondria is dependent on both plasma membrane potential (ΔΨp) and AΨm. At sufficiently low dye concentrations (TMRM =1 nM, i.e. high cell/dye ratio) and normal membrane potentials, ≧95% of the dye is in the mitochondria, and ≦1% in the media, which results in an approximately 100× sensitivity of the dye to ΔΨm over ΔΨp, given equivalent changes in plasma or mitochondrial membrane potential [Rottenberg, H. and S. Wu, Biochim Biophys Acta, 1998. 1404(3): p. 393-40].
For these methods, primary rodent neurons are treated with reagent under normal culture conditions for the indicated time period, followed by removal of the media, 1×2 minute wash in pre-warmed 37° C. HBSS plus 10 mM glucose and 10 mM HEPES (HBSS+), then incubation in HBSS+ with 1 nM TMRE/M. Following equilibration of the dye for 20 minutes to ensure distribution across the mitochondrial membrane, the cells are imaged while remaining in the 1 nM TMRE/M solution, as is necessary for a continued dye equilibrium state. Random field images are taken using an Olympus IX-70 microscope and 40× objective (fluorescent excitation: 545; emission: 610) and Apogee KX32ME CCD camera, and the mean relative fluorescent unit (RFU) value of the neuronal soma and processes (excluding mitochondria deficient regions) is quantified using Scanalytics IPLab software.

cortical cultures = assay: Tat-induced apoptotic cell death in cortical cultures
Protocol: Quantifying Cell Death: Cell death is assessed by visualizing fragmented DNA per the TUNEL method as described previously as well [Perry, S. W., et al., J Neurosci Res, 2004. […] Briefly, after treatment in 24 well plates, cells are fixed with Histochoice MB Tissue Fixative (Amresco) then TUNEL-labeled with the ApopTag kit (Chemicon) according to kit instructions. Cells are visualized under Hoffman modulation contrast optics using a 40× objective, and images taken of ten random fields per well from 3 replicate wells per condition. Data is expressed as percent Apoptag-positive neurons [(# Apoptag positive neurons/)(Total neurons))33 100] (or Trypan blue positive neurons where applicable) per field, then field values averaged for a mean cell death value per well. Mean values from 3 or more (see “power” calculations below) wells are averaged for a final mean cell death value for each condition±SEM; the analyses is made without knowledge of the treatment group.

[4] = test system: CA1 pyramidal neurons in hippocampal slices; parameters: species or system rodent
Protocol: CA1 pyramidal neurons were exposed to 1 μM cPAF or vehicle for 30-60min and simultaneously imaged and recorded by whole-cell patch clamp before and after delivery of a high-frequency stimulus (HFS: three 1s, 100 Hz trains, every 20 s) applied to Schaffer collateral axons via a bipolar stimulating electrode planted in the stratum radiatum. (A) Dendrite beading in a cPAF-exposed cell 45min after HFS, with no disruption of dendrite or spine morphology in control cells. […] (C) Excitatory synaptic transmission between Shaffer collateral axons and CA1 pyramidal neurons is strongly potentiated following HFS in control slices. […] (EPSP traces at baseline and 40 min from representative control cell and cPAF-treated beaded cell are at right.) […]
Explant hippocampal slices are exposed to HIV-1 neurotoxins±agents that reverse mitochondrial hyperpolarization. Beading and LTP are then be measured:
Hippocampal slice preparation: Brains from anesthetized P14-28 rodents are rapidly removed and cooled in sucrose based artificial cerebrospinal fluid (ACSF) containing in mM: 110 sucrose, 60 NaCl, 3 KCl, 1.25 NaH2PO4, 28 NaHCO3, 10 D-glucose, 0.5 CaCl2, 7 MgSO4, 0.6 ascorbate. The brains are blocked and fixed to a specimen stage with cyanoacrylate. Coronal slices (250-400 μm in thickness) are cut with a vibroslicer (World Precision Instruments, Fla., USA) equipped with a Peltier cooling system. The middle four to six slices of each hippocampus (with the entorhinal cortex removed) are placed into a holding chamber prior to use.
Measuring dendritic beading and postsynaptic potentials in single CA1 cells in hippocampal slices: Dendritic arbors of individual CA1 pyramidal cells are imaged while simultaneously recording excitatory postsynaptic potentials in the same cell by patch clamp recordings in whole-cell configuration. Recording pipettes ([…] resistance) are pulled from 1.5 mm borosilicate glass using a horizontal Flaming/Brown micropipette puller (Sutter Instrument Co, Calif.), fire-polished, and filled with intracellular recording solution (in mM: KCl 20, potassium gluconate 130, EGTA 0.5, HEPES 10, MgSO4 2, ATP 2.5, GTP 0.5, pH 7.3). In order to visualize dendrites of the recorded cell, Alexa 568 hydrazide (30 μM) is included in the recording pipette and is injected by small negative current pulses for 15-20 min prior to recording in order to fill the dendritic arbor. Hippocampal slices are bathed in artificial CSF (containing, in mM: NaCl 125, KCl 2.5, NaH2PO4 1.25, NaHCO3 25, CaCl2 2, MgCl2 1, D-glucose 25, oxygenated and buffered with 5% CO2). Membrane potentials of CA1 pyramidal cells are recorded in current clamp mode, and postsynaptic potentials are evoked by test pulses of constant-current stimulation applied via a bipolar stimulating electrode placed 50-200 μm away in the stratum radiatum. Bicuculline (10 μM) is included in the bath to isolate excitatory postsynaptic potentials. After at least 10 min of consistent baseline recording, a high-frequency LTP induction stimulus (HFS, consisting of four 1 s, 100 Hz trains delivered every 15 s) is applied. EPSPs are recorded for 60 min following HFS. At the same time, dendrites are imaged at 40× magnification by fluorescence microscopy, using a shutter to limit fluorescent light exposure and prevent phototoxic injury to the slice. Serial images of dendrites are compared to detect development of focal swellings along dendritic shafts following HFS. Cells are scored as beaded if swellings develop along any of their dendrites.
Field potential recording and induction of LTP in hippocampal slices: Single-cell recordings are complemented by extracellular field potential recordings: while single cell recordings allow correlation of electrophysiologic data with dendritic beading in the same cell, extracellular recordings sample responses from populations of dendrites and are less invasive. […]

[5] = test system: rat cerebellar granule neurons (CGNs); assay: Tat-induced apoptosis of cerebellar granule neurons (TUNEL); assay type: cell-based; settings: Tat 500 nM, 48 h
Protocol: (§2) CGNs were exposed to HIV-1 Tat (Tat, 500 nM), or vehicle alone (NT), in the presence or absence of the A2A antagonist, ZM241385. After 48 h, cultures were analyzed for the percentage of apoptotic cells using the TUNEL assay. Data represent mean±SEM for one experiment that was performed in triplicate; data are representative of two independent experiments.
as §2, with “(No Tat),” for “(NT),”, “A2AR antagonists, ATL455 and ZM241385, or the A2AR agonists ATL313 and CGS21680.” for “A2A antagonist, ZM241385.”
(1) Primary rat cerebellar granule neurons (CGNs). CGNs represent a highly homogenous population of primary neurons which are susceptible to Tat and PAF-mediated cell killing and have been used in many of previous studies. CGN cells are isolated according to published procedures [Maggirwar, S. B., et al. 1999. J Neurochem 73:578-86] [Tong, N., et al. 2001. Eur J Neurosci 13:1913-22].
78(4): p. […] 22(6): p. 1102-6].
Primary rat cerebellar granule neurons (CGNs) were exposed to a neurotoxic concentration of HIV-1 Tat, in the presence or absence of an A2AR antagonist (ZM241385). […] It is important to note that CGNs express adenosine A2A receptors [Vacas, J., et al. 2003. Brain Res 992:272-280].
Primary cultures of rat cerebellar granule neurons (CGNs) were exposed to HIV-Tat ([…]) alone or together with increasing doses of the A2AR antagonist ATL-455 or A2A agonists ATL313 or CGS21680. Cells are treated with the test compounds for defined time intervals of up to 48 hours (1, 4, 8, 24, and 48 hours).

C[C@H](Cc1ccccc1)Nc1ncnc2c1ncn2[C@@H]1O[C@H](CO)[C@@H](O)[C@H]1O [R-PIA]
effect on Tat-induced NO secretion [1]: no effect | effect on Tat-induced iNOS expression ([2]; 1 μM): no effect

O=C(Cc1ccccc1)Nc1nc2ccc(Cl)cc2c2nc(-c3ccco3)nn12 [MRS 1220]
prevention of the anti-inflammatory effects of CGS21680 or IB-MECA, respectively [2]: prevent

TNF-α
effect on ΔΨm ([3]; neurotoxin alone): dose dependent increases

CCCCNC(=O)NS(=O)(=O)c1ccc(C)cc1 [Tolbutamide]
toxicity, alone (cortical cultures; tolbutamide 100 μM alone): no toxicity | effect on Tat's induction of apoptotic cell death (cortical cultures; tolbutamide 100 μM, Tat 0.1 or 2.5 μg/ml, 24 hours): attenuating apoptotic cell death; also recorded: partially attenuated | effect on ΔΨm, alone ([3]; tolbutamide 100 μM alone): no significant effect | effect on Tat mediated rise in ΔΨm ([3]; tolbutamide 100 μM, Tat 0.1 or 2.5 μg/ml, 1 and 24 hours): blocked; also recorded: completely prevented

CNC(=O)[C@H]1O[C@@H](n2cnc3c(NCc4cccc(I)c4)ncnc32)[C@H](O)[C@@H]1O [IB-MECA]
effect on Tat-induced NO secretion [1]: complete abrogation | inhibition of Tat-induced iNOS expression ([2]; co-treatment with Tat): roughly 50%

N#CC(C#N)=NNc1ccc(OC(F)(F)F)cc1 [FCCP, Trifluorocarbonylcyanide Phenylhydrazone]
Beading Prediction [4]: Prevented | LTP Prediction [4]: Achieved | Δψm [4]: Normalized | Δψm ([4]; FCCP, no neurotoxin (vehicle)): Slightly | effect on mitochondrial TMRE/M signal [3]: substantially diminished; also recorded: loss of TMRM signal | effect on ΔΨm [3]: normalizes ΔΨm back to baseline levels but not below

Nc1nc(NCCc2ccc(O)cc2)nc2nc(-c3ccco3)nn12 [ZM241385, 4(2-[7-Amino-2-(2-furyl)[1,2,4]triazolo[2,3-a][1,3,5]triazin-5-ylamino]ethyl)phenol]
effect on Tat-induced neuronal apoptosis [5]: protect neurons; also recorded: protects neurons against Tat-induced apoptosis | prevention of the anti-inflammatory effects of CGS21680 or IB-MECA, respectively [2]: prevent

— patent US20080269161A1, “Compositions and Methods Relating to Mitochondrial Hyperpolarization in Neurological Disease” (priority 2005, published 2008)
